In the assay the test system is Jurkat. The assay is described as follows: Cytotoxicity against human Jurkat cells after 42 hrs by alamar blue assay. Format: functional, cell-based. On the technique in general: The colour change of resazurin is a common sign of viable cells or microbes.

≈ marks a conversion by molar mass, not a printed value.

In the case of `O=C1NC(=O)C(c2c[nH]c3cc(OS(=O)(=O)O)ccc23)=C1c1c[nH]c2ccccc12`, the IC50 was greater than 25 µg/mL. Take `O=C1NC(=O)C(c2c[nH]c3cc(O)ccc23)=C1c1c[nH]c2ccccc12` [ARCYRIARUBIN B]: the IC50 is 10 µg/mL (≈ 29.1 µM). As for `O=C1NC(=O)C2=C1c1c([nH]c3cc(O)ccc13)Oc1cccc3[nH]cc2c13` [ARCYROXOCIN B], the figure is 7 µg/mL (≈ 19.6 µM); as for `O=C1NC(=O)[C@H]2c3c[nH]c4cccc(c34)-c3[nH]c4ccccc4c3[C@@H]12` [DIHYDROARCYRIACYANIN A], 7 µg/mL (≈ 21.4 µM).

As usually defined, the IC50 is the concentration at which inhibition is half-maximal. A lower IC50 goes with greater potency in that assay.
